{"source": "patent US4605744A", "about": "“Imidazole derivatives” (Hoffmann-La Roche Inc., priority 1985, dated 1986)", "assay_in_all_cases": "In vitro antibacterial activity (MIC)", "assay_type_in_all_cases": "cell-based", "key": {"[1]": {"system": "E. coli 4", "details": "Escherichia coli, 4, E. coli 4; read-out: MIC", "outline": "(§1)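 Read-out: visible growth, checked with a viewer after overnight incubation at 37° C. Bacteria, from a 10^-2 dilution of an overnight culture, were exposed to drug at 128 to 0.008 μg/ml in Mueller-Hinton broth.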"}, "[2]": {"system": "C. freundii 8ASM", "details": "Citrobacter freundii, 8ASM, C. freundii 8ASM; read-out: MIC", "outline": "as §1"}, "[3]": {"system": "E. cloacae 9295", "details": "Enterobacter cloacae, 9295, E. cloacae 9295; read-out: MIC", "outline": "as §1"}, "[4]": {"system": "P. vulgaris 101", "details": "Proteus vulgaris, 101, P. vulgaris 101; read-out: MIC", "outline": "as §1"}, "[5]": {"system": "E. coli 387-1", "details": "Escherichia coli, 3871, E. coli 387-1; read-out: MIC", "outline": "as §1"}, "[6]": {"system": "S. marcescens S1", "details": "Serratia marcescens, S1, S. marcescens S1; read-out: MIC", "outline": "as §1"}, "[7]": {"system": "S. pyogenes 503-782", "details": "Streptococcus pyogenes, 503782; S. pyogenes 503-782; read-out: MIC", "outline": "as §1"}, "[8]": {"system": "S. marcescens S5", "details": "Serratia marcescens, S5, S. marcescens S5; read-out: MIC", "outline": "as §1"}, "[9]": {"system": "E. coli 503-455", "details": "Escherichia coli, 503455", "outline": "as §1"}, "[10]": {"system": "P. aeruginosa 8780", "details": "Pseudomonas aeruginosa; P. aeruginosa 8780; read-out: MIC", "outline": "as §1"}, "[11]": {"system": "P. mirabilis 90", "details": "Proteus mirabilis, 90, P. mirabilis 90; read-out: MIC", "outline": "as §1"}, "[12]": {"system": "E. coli 5152", "details": "Escherichia coli, 5152", "outline": "as §1"}, "[13]": {"system": "S. marcescens S147", "details": "Serratia marcescens; S. marcescens S147; read-out: MIC", "outline": "as §1"}, "[14]": {"system": "E. cloacae 214", "details": "Enterobacter cloacae, 214, E. cloacae 214; read-out: MIC", "outline": "as §1"}, "[15]": {"system": "C. diversus CDC 1663-72", "details": "Citrobacter koseri, CDC166372; C. diversus CDC 1663-72; read-out: MIC", "outline": "as §1"}, "[16]": {"system": "E. aerogenes 503-478", "details": "Klebsiella aerogenes, 503478, E. aerogenes 503-478; read-out: MIC", "outline": "as §1"}, "[17]": {"system": "E. cloacae P99", "details": "Enterobacter cloacae, P99, E. cloacae P99", "outline": "as §1"}, "[18]": {"system": "S. marcescens S4", "details": "Serratia marcescens, S4, S. marcescens S4; read-out: MIC", "outline": "as §1"}, "[19]": {"system": "S. pneumoniae SC", "details": "Streptococcus pneumoniae, read-out: MIC", "outline": "as §1"}, "[20]": {"system": "K. pneumoniae 35", "details": "Klebsiella pneumoniae; K. pneumoniae 35; read-out: MIC", "outline": "as §1"}, "[21]": {"system": "S. marcescens S2", "details": "Serratia marcescens; S. marcescens S2; read-out: MIC", "outline": "as §1"}, "[22]": {"system": "S. pneumoniae 6302", "details": "Streptococcus pneumoniae, 6302, S. pneumoniae 6302; read-out: MIC", "outline": "as §1"}, "[23]": {"system": "S. faecalis C1", "details": "Enterococcus faecalis; S. faecalis C1; read-out: MIC", "outline": "as §1"}, "[24]": {"system": "P. mirabilis 620A", "details": "Proteus mirabilis, 620A", "outline": "as §1"}, "[25]": {"system": "P. aeruginosa 503-820", "details": "Pseudomonas aeruginosa, 503820; P. aeruginosa 503-820; read-out: MIC", "outline": "as §1"}, "[26]": {"system": "P. mirabilis 190", "details": "Proteus mirabilis, 190, P. mirabilis 190; read-out: MIC", "outline": "as §1"}, "[27]": {"system": "S. pneumoniae 6301", "details": "Streptococcus pneumoniae, 6301", "outline": "as §1"}, "[28]": {"system": "P. aeruginosa 8710", "details": "Pseudomonas aeruginosa; P. aeruginosa 8710; read-out: MIC", "outline": "as §1"}, "[29]": {"system": "E. aerogenes 83", "details": "Klebsiella aerogenes, 83, E. aerogenes 83; read-out: MIC", "outline": "as §1"}, "[30]": {"system": "S. pyogenes 4", "details": "Streptococcus pyogenes, 4, S. pyogenes 4; read-out: MIC", "outline": "as §1"}, "[31]": {"system": "P. aeruginosa 5700", "details": "Pseudomonas aeruginosa, 5700, P. aeruginosa 5700; read-out: MIC", "outline": "as §1"}, "[32]": {"system": "S. schottmuelleri", "details": "read-out: MIC", "outline": "as §1"}, "[33]": {"system": "K. pneumoniae 5096", "details": "Klebsiella pneumoniae; K. pneumoniae 5096; read-out: MIC", "outline": "as §1"}, "[34]": {"system": "E. cloacae 5699", "details": "Enterobacter cloacae, 5699, E. cloacae 5699; read-out: MIC", "outline": "as §1"}, "[35]": {"system": "E. coli 48", "details": "Escherichia coli, 48, E. coli 48; read-out: MIC", "outline": "as §1"}, "[36]": {"system": "E. cloacae 9570A", "details": "Enterobacter cloacae, read-out: MIC", "outline": "as §1"}, "[37]": {"system": "S. marcescens S714", "details": "Serratia marcescens, S714, S. marcescens S714; read-out: MIC", "outline": "as §1"}, "[38]": {"system": "P. vulgaris 100", "details": "Proteus vulgaris; P. vulgaris 100; read-out: MIC", "outline": "as §1"}, "[39]": {"system": "K. pneumoniae 503-964", "details": "Klebsiella pneumoniae, 503964; K. pneumoniae 503-964; read-out: MIC", "outline": "as §1"}, "[40]": {"system": "S. marcescens S3", "details": "Serratia marcescens; S. marcescens S3; read-out: MIC", "outline": "as §1"}, "[41]": {"system": "K. pneumoniae 4964", "details": "Klebsiella pneumoniae, 4964", "outline": "as §1"}, "[42]": {"system": "C. freundii CDC6", "details": "Citrobacter freundii, CDC6, C. freundii CDC6; read-out: MIC", "outline": "as §1"}, "[43]": {"system": "E. coli R-563", "details": "Escherichia coli, R563, E. coli R-563; read-out: MIC", "outline": "as §1"}, "[44]": {"system": "P. aeruginosa 6148B", "details": "Pseudomonas aeruginosa, read-out: MIC", "outline": "as §1"}}, "note": "Where a name gives a salt, the structure may show the parent alone."}
{"smiles": "CC1(C)S[C@@H]2[C@H](N=CN3CCC(CCCn4ccnc4N)CC3)C(=O)N2[C@H]1C(=O)O", "note": "[I, [2S-(2alpha,5alpha,6beta)]-6-[[[4-[3-(2-amino-1H-imidazol-1-yl)propyl]piperidinyl]methylene]amino]-3,3-dimethyl-7-oxo-4-thia-1-azabicyclo[3.2.0]hpetane-2-carboxylic acid hydrochloride]", "values": [{"measurement": "MIC", "setting": "[1]", "result": 0.031, "unit": "µg/mL"}, {"measurement": "MIC", "setting": "[2]", "result": 0.031, "unit": "µg/mL"}, {"measurement": "MIC", "setting": "[3]", "result": 0.125, "unit": "µg/mL"}, {"measurement": "MIC", "setting": "[4]", "result": 128, "unit": "µg/mL"}, {"measurement": "MIC", "setting": "[5]", "result": 0.062, "unit": "µg/mL"}, {"measurement": "MIC", "setting": "[6]", "result": 0.062, "unit": "µg/mL"}, {"measurement": "MIC", "setting": "[7]", "result": "> 128", "unit": "µg/mL"}, {"measurement": "MIC", "setting": "[8]", "result": 0.25, "unit": "µg/mL"}, {"measurement": "MIC", "setting": "[9]", "result": 1, "unit": "µg/mL"}, {"measurement": "MIC", "setting": "[10]", "result": "> 128", "unit": "µg/mL"}, {"measurement": "MIC", "setting": "[11]", "result": 4, "unit": "µg/mL"}, {"measurement": "MIC", "setting": "[12]", "result": 4, "unit": "µg/mL"}, {"measurement": "MIC", "setting": "[13]", "result": 0.062, "unit": "µg/mL"}, {"measurement": "MIC", "setting": "[14]", "result": 0.062, "unit": "µg/mL"}, {"measurement": "MIC", "setting": "[15]", "result": 0.031, "unit": "µg/mL"}, {"measurement": "MIC", "setting": "[16]", "result": 1, "unit": "µg/mL"}, {"measurement": "MIC", "setting": "[17]", "result": 0.031, "unit": "µg/mL"}, {"measurement": "MIC", "setting": "[18]", "result": 0.25, "unit": "µg/mL"}, {"measurement": "MIC", "setting": "[19]", "result": 4, "unit": "µg/mL"}, {"measurement": "MIC", "setting": "[20]", "result": 0.25, "unit": "µg/mL"}, {"measurement": "MIC", "setting": "[21]", "result": 0.062, "unit": "µg/mL"}, {"measurement": "MIC", "setting": "[22]", "result": 4, "unit": "µg/mL"}, {"measurement": "MIC", "setting": "[23]", "result": "> 128", "unit": "µg/mL"}, {"measurement": "MIC", "setting": "[24]", "result": 32, "unit": "µg/mL"}, {"measurement": "MIC", "setting": "[25]", "result": 128, "unit": "µg/mL"}, {"measurement": "MIC", "setting": "[26]", "result": 0.125, "unit": "µg/mL"}, {"measurement": "MIC", "setting": "[27]", "result": 2, "unit": "µg/mL"}, {"measurement": "MIC", "setting": "[28]", "result": 128, "unit": "µg/mL"}, {"measurement": "MIC", "setting": "[29]", "result": 1, "unit": "µg/mL"}, {"measurement": "MIC", "setting": "[30]", "result": 1, "unit": "µg/mL"}, {"measurement": "MIC", "setting": "[31]", "result": 0.062, "unit": "µg/mL"}, {"measurement": "MIC", "setting": "[32]", "result": 0.031, "unit": "µg/mL"}, {"measurement": "MIC", "setting": "[33]", "result": "> 128", "unit": "µg/mL"}, {"measurement": "MIC", "setting": "[34]", "result": 0.062, "unit": "µg/mL"}, {"measurement": "MIC", "setting": "[35]", "result": 0.031, "unit": "µg/mL"}, {"measurement": "MIC", "setting": "[36]", "result": 0.125, "unit": "µg/mL"}, {"measurement": "MIC", "setting": "[37]", "result": 0.125, "unit": "µg/mL"}, {"measurement": "MIC", "setting": "[38]", "result": 4, "unit": "µg/mL"}, {"measurement": "MIC", "setting": "[39]", "result": 0.062, "unit": "µg/mL"}, {"measurement": "MIC", "setting": "[40]", "result": 0.062, "unit": "µg/mL"}, {"measurement": "MIC", "setting": "[41]", "result": 0.25, "unit": "µg/mL"}, {"measurement": "MIC", "setting": "[42]", "result": 0.031, "unit": "µg/mL"}, {"measurement": "MIC", "setting": "[43]", "result": 0.062, "unit": "µg/mL"}, {"measurement": "MIC", "setting": "[44]", "result": 128, "unit": "µg/mL"}]}
